Laboratory results: patent US20200022370A1, “MICROBIOCIDAL OXADIAZOLE DERIVATIVES” (SYNGENTA PARTICIPATIONS AG, priority 2016, published 2020)

Columns and labels:
[1] = test system: Glomerella lacenarium (Colletotrichum lacenarium); experiment: Glomerella lacenarium (Colletotrichum lacenarium) liquid culture / cucumber / preventative (anthracnose); assay type: cell-based; conditions: 20 ppm, liquid culture in PDB, 24° C., inhibition of growth measured photometrically 3 to 4 days after application, vs untreated, read-out: disease control
Outline: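 Cryopreserved conidia in potato dextrose broth were added to test compound in a 96-well microtiter plate and incubated at 24 °C. Growth inhibition read photometrically 3–4 days after application, as percent activity versus untreated check.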

[2] = test system: Puccinia recondita f. Sp. Tritici; experiment: Puccinia recondita f. sp. tritici / wheat / leaf disc curative (brown rust); assay type: in vivo; conditions: foliar, 200 ppm in the applied formulation, wheat leaf segments cv. Kanzler, compound applied 1 day after inoculation, vs untreated, 6 to 8 days after application, read-out: disease control
Method: (§1) Leaf disks or leaf segments of various plant species are cut from plants grown in a greenhouse. The cut leaf disks or segments are placed in multiwell plates (24-well format) onto water agar. The leaf disks are sprayed with a test solution before (preventative) or after (curative) inoculation. Compounds to be tested are prepared as DMSO solutions (max. 10 mg/ml) which are diluted to the appropriate concentration with 0.025% Tween20 just before spraying. The inoculated leaf disks or segments are incubated under defined conditions (temperature, relative humidity, light, etc.) according to the respective test system. A single evaluation of disease level is carried out 3 to 14 days after inoculation, depending on the pathosystem. Percent disease control relative to the untreated check leaf disks or segments is then calculated.
Example 2: Fungicidal Activity Against Puccinia recondita f. sp. tritici/Wheat/Leaf Disc Curative (Brown Rust)
Wheat leaf segments cv. Kanzler are placed on agar in multiwell plates (24-well format). The leaf segments are then inoculated with a spore suspension of the fungus. Plates were stored in darkness at 19° C. and 75% relative humidity. The Formulated test compound diluted in water was applied 1 day after inoculation. The leaf segments were incubated at 19° C. and 75% relative humidity under a light regime of 12 hours light/12 hours darkness in a climate cabinet and the activity of a compound was assessed as percent disease control compared to untreated when an appropriate level of disease damage appears in untreated check leaf segments (6 to 8 days after application).
(§2) The following compounds at 200 ppm in the applied Formulation give at least 80% disease control in this test when compared to untreated control leaf disks under the same conditions, which show extensive disease development.

[3] = test system: Phakopsora pachyrhizi; experiment: Phakopsora pachyrhizi / soybean / leaf disc preventative (Asian soybean rust); assay type: in vivo; conditions: foliar, 200 ppm in the applied formulation, soybean leaf disks, inoculated one day after application, vs untreated, 12 to 14 days after application, read-out: disease control
Method: as §1
Example 3: Fungicidal Activity Against Phakopsora pachyrhizi/Soybean/Leaf Disc Preventative (Asian Soybean Rust)
Soybean leaf disks are placed on water agar in multiwell plates (24-well format) and sprayed with the Formulated test compound diluted in water. One day after application leaf discs are inoculated by spraying a spore suspension on the lower leaf surface. After an incubation period in a climate cabinet of 24-36 hours in darkness at 20° C. and 75% rh leaf disc are kept at 20° C. with 12 h light/day and 75% rh. The activity of a compound is assessed as percent disease control compared to untreated when an appropriate level of disease damage appears in untreated check leaf disks (12 to 14 days after application).
as §2

[4] = test system: Puccinia recondita f. Sp. Tritici; experiment: Puccinia recondita f. sp. tritici / wheat / leaf disc preventative (brown rust); assay type: in vivo; conditions: foliar, 200 ppm in the applied formulation, wheat leaf segments cv. Kanzler, inoculated 1 day after application, vs untreated, 7 to 9 days after application, read-out: disease control
Outline: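 Preventative leaf-segment test on wheat cv. Kanzler: formulated compound diluted in water was sprayed onto segments on agar, with spore inoculation 1 day later. Incubated at 19° C, 75% rh, 12 h light/12 h dark; percent disease control versus untreated scored 7 to 9 days after application.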

CN(C(=O)C1CC1)c1ccc(-c2noc(C(F)(F)F)n2)cc1 [Compound 1.128, N-methyl-N-[4-[5-(trifluoromethyl)-1,2,4-oxadiazol-3-yl]phenyl]cyclo-propanecarboxamide]
≥ 80%: inhibition of growth at 20 ppm [1] | pest or weed control at 200 ppm [2] | pest or weed control at 200 ppm [3] | pest or weed control at 200 ppm [4]

COC(C)C(=O)Nc1ccc(-c2noc(C(F)(F)F)n2)cc1 (stereo not shown) [Compound 1.112, 2-methoxy-N-[4-[5-(trifluoromethyl)-1,2,4-oxadiazol-3-yl]phenyl] propanamide]
≥ 80%: inhibition of growth at 20 ppm [1] | pest or weed control at 200 ppm [2] | pest or weed control at 200 ppm [3] | pest or weed control at 200 ppm [4]

CN(C(=O)C1(C)COC1)c1ccc(-c2noc(C(F)(F)F)n2)cc1 [Compound 1.139, N,3-dimethyl-N-[4-[5-(trifluoromethyl)-1,2,4-oxadiazol-3-yl]phenyl]oxetane-3-carboxamide]
≥ 80%: inhibition of growth at 20 ppm [1] | pest or weed control at 200 ppm [2] | pest or weed control at 200 ppm [3] | pest or weed control at 200 ppm [4]

CC1(C(=O)Nc2ccc(-c3noc(C(F)(F)F)n3)cc2)COC1 [Compound 1.102, 3-methyl-N-[4-[5-(trifluoromethyl)-1,2,4-oxadiazol-3-yl]phenyl]oxetane-3-carboxamide]
≥ 80%: inhibition of growth at 20 ppm [1] | pest or weed control at 200 ppm [2] | pest or weed control at 200 ppm [3] | pest or weed control at 200 ppm [4]

COC(=O)C(C)(C)CC(=O)Nc1ccc(-c2noc(C(F)(F)F)n2)cc1 [Compound 1.73, methyl 2,2-dimethyl-4-oxo-4-[4-[5-(trifluoromethyl)-1,2,4-oxadiazol-3-yl]anilino]butanoate]
≥ 80%: inhibition of growth at 20 ppm [1] | pest or weed control at 200 ppm [2] | pest or weed control at 200 ppm [3] | pest or weed control at 200 ppm [4]

C#CCCC(=O)Nc1ccc(-c2noc(C(F)(F)F)n2)cc1 [Compound 2.4, N-[4-[5-(trifluoromethyl)-1,2,4-oxadiazol-3-yl]phenyi]pent-4-ynamide]
≥ 80%: inhibition of growth at 20 ppm [1] | pest or weed control at 200 ppm [2] | pest or weed control at 200 ppm [3] | pest or weed control at 200 ppm [4]

CN(C(=O)C1CCOC1)c1ccc(-c2noc(C(F)(F)F)n2)cc1 (stereo not shown) [Compound 1.135, N-methyl-N-[4-[5-(trifluoromethyl)-1,2,4-oxadiazol-3-yl]phenyl] tetrahydrofuran-3-carboxamide]
≥ 80%: inhibition of growth at 20 ppm [1] | pest or weed control at 200 ppm [2] | pest or weed control at 200 ppm [3]

N#CCC(=O)Nc1ccc(-c2noc(C(F)(F)F)n2)cc1 [Compound 2.13, 2-cyano-N-[4-[5-(trifluoromethyl)-1,2,4-oxadiazol-3-yl]phenyl] acetamide]
≥ 80%: inhibition of growth at 20 ppm [1] | pest or weed control at 200 ppm [2] | pest or weed control at 200 ppm [3] | pest or weed control at 200 ppm [4]

CCCC(=O)Nc1ccc(-c2noc(C(F)(F)F)n2)cc1 [Compound 2.5, N-[4-[5-(trifluoromethyl)-1,2,4-oxadiazol-3-yl]phenyl] butanamide]
≥ 80%: inhibition of growth at 20 ppm [1] | pest or weed control at 200 ppm [2] | pest or weed control at 200 ppm [3] | pest or weed control at 200 ppm [4]

O=C(Nc1ccc(-c2noc(C(F)(F)F)n2)cc1)C1(F)CC1 [Compound 1.123, 1-fluoro-N-[4-[5-(trifluoromethyl)-1,2,4-oxadiazol-3-yl]phenyl]cyclo-propanecarboxamide]
≥ 80%: inhibition of growth at 20 ppm [1] | pest or weed control at 200 ppm [2] | pest or weed control at 200 ppm [3] | pest or weed control at 200 ppm [4]

CN(C(=O)C1(C#N)CC1)c1ccc(-c2noc(C(F)(F)F)n2)cc1 [Compound 1.142, 1-cyano-N-methyl-N-[4-[5-(trifluoromethyl)-1,2,4-oxadiazol-3-yl]phenyl]cyclo-propanecarboxamide]
≥ 80%: inhibition of growth at 20 ppm [1] | pest or weed control at 200 ppm [2] | pest or weed control at 200 ppm [3] | pest or weed control at 200 ppm [4]

COCCC(=O)N(C)c1ccc(-c2noc(C(F)(F)F)n2)cc1 [Compound 1.136, 3-methoxy-N-methyl-N-[4-[5-(trifluoromethyl)-1,2,4-oxadiazol-3-yl]phenyl] propanamide]
≥ 80%: inhibition of growth at 20 ppm [1] | pest or weed control at 200 ppm [2] | pest or weed control at 200 ppm [3]

COC(C)C(=O)N(C)c1ccc(-c2noc(C(F)(F)F)n2)cc1 (stereo not shown) [Compound 1.143, 2-methoxy-N-methyl-N-[4-[5-(trifluoromethyl)-1,2,4-oxadiazol-3-yl]phenyl] propanamide]
≥ 80%: inhibition of growth at 20 ppm [1] | pest or weed control at 200 ppm [2] | pest or weed control at 200 ppm [3] | pest or weed control at 200 ppm [4]

CC(=O)Nc1ccc(-c2noc(C(F)(F)F)n2)cn1 [Compound 2.29, N-[5-[5-(trifluoromethyl)-1,2,4-oxadiazol-3-yl]-2-pyridyl]acetamide]
≥ 80%: inhibition of growth at 20 ppm [1] | pest or weed control at 200 ppm [2] | pest or weed control at 200 ppm [3] | pest or weed control at 200 ppm [4]

CC(C)C(=O)Nc1ccc(-c2noc(C(F)(F)F)n2)cc1 [Compound 1.74, 2-methyl-N-[4-[5-(trifluoromethyl)-1,2,4-oxadiazol-3-yl]phenyl] propanamide]
≥ 80%: inhibition of growth at 20 ppm [1] | pest or weed control at 200 ppm [2] | pest or weed control at 200 ppm [3] | pest or weed control at 200 ppm [4]

COCCCC(=O)N(C)c1ccc(-c2noc(C(F)(F)F)n2)cc1 [Compound 1.140, 4-methoxy-N-methyl-N-[4-[5-(trifluoromethyl)-1,2,4-oxadiazol-3-yl]phenyl]butanamide]
≥ 80%: inhibition of growth at 20 ppm [1] | pest or weed control at 200 ppm [2] | pest or weed control at 200 ppm [3]

O=C(CSc1ccccc1)Nc1ccc(-c2noc(C(F)(F)F)n2)nc1 [Compound 1.55, 2-phenylsulfanyl-N-[6-[5-(trifluoromethyl)-1,2,4-oxadiazol-3-yl]-3-pyridyl]acetamide]
≥ 80%: inhibition of growth at 20 ppm [1] | pest or weed control at 200 ppm [2] | pest or weed control at 200 ppm [3] | pest or weed control at 200 ppm [4]

CN(C(=O)c1ccccc1)c1ccc(-c2noc(C(F)(F)F)n2)cc1 [Compound 2.20, N-methyl-N-[4-[5-(trifluoromethyl)-1,2,4-oxadiazol-3-yl]phenyl]benzamide]
≥ 80%: inhibition of growth at 20 ppm [1] | pest or weed control at 200 ppm [2] | pest or weed control at 200 ppm [3] | pest or weed control at 200 ppm [4]

COCC(=O)N(C)c1ccc(-c2noc(C(F)(F)F)n2)cc1 [Compound 1.129, 2-methoxy-N-methyl-N-[4-[5-(trifluoromethyl)-1,2,4-oxadiazol-3-yl]phenyl]acetamide]
≥ 80%: inhibition of growth at 20 ppm [1] | pest or weed control at 200 ppm [2] | pest or weed control at 200 ppm [4]

CCC(C)C(=O)Nc1ccc(-c2noc(C(F)(F)F)n2)cc1 (stereo not shown) [Compound 1.99, 2-methyl-N-[4-[5-(trifluoromethyl)-1,2,4-oxadiazol-3-yl]phenyl]butanamide]
≥ 80%: inhibition of growth at 20 ppm [1] | pest or weed control at 200 ppm [2] | pest or weed control at 200 ppm [3] | pest or weed control at 200 ppm [4]

CON(C(=O)C1CC1)c1ccc(-c2noc(C(F)(F)F)n2)cc1 [Compound 2.27, N-methoxy-N-[4-[5-(trifluoromethyl)-1,2,4-oxadiazol-3-yl]phenyl] cyclopropane-carboxamide]
≥ 80%: inhibition of growth at 20 ppm [1] | pest or weed control at 200 ppm [2] | pest or weed control at 200 ppm [3]

O=C(CCO)Nc1ccc(-c2noc(C(F)(F)F)n2)cc1 [Compound 1.75, 3-hydroxy-N-[4-[5-(trifluoromethyl)-1,2,4-oxadiazol-3-yl]phenyl] propanamide]
≥ 80%: inhibition of growth at 20 ppm [1] | pest or weed control at 200 ppm [2] | pest or weed control at 200 ppm [4]
